Experimental data: PMC10906223 (JCI Insight, 2024)
“And” between values parts separate entries of the source, which are not always exact repeats. Equal values may be shown once.

What was measured:
Format in all cases: cell-based
[1] = tested on: human donor dispersed islet cells; test: Insulin secretion from healthy human donor dispersed islet cells; set-up: Insulin secretion: unit not given here
Protocol: (§1) Pancreata of nondiabetic C57BL/6J mice were digested using collagenase P (Roche Diagnostics, catalog 11213873001), and islets were manually picked up using a stereomicroscope (ZEISS Stemi 305). […] Isolated mouse islets or provided human islets were dispersed as described ([28]). Briefly, 100–120 islets were washed 2 times using modified HBSS, then dispersed in 600 μL Accutase (Innovative Cell Technologies, catalog AT-104) by gently pipetting up and down for 7 minutes at 37°C. […] Following refreshing of KRBH, cells were dispensed in 8 microfuge tubes (2,000 cells/tube) and treated with WCDD301, preclustered Ephrin-A5 Fc, or preclustered Fc in the presence or absence of the competitive inhibitor of EphA4 receptor, rhyncophylline ([60]) (MilliporeSigma, catalog SML2345). In the presence or absence of these effectors, secretion assay was performed sequentially as shown in Supplemental Table 5. […] Preclustering of Ephrin-A5 Fc was done by mixing Ephrin-A5 Fc or Fc alone (BioLegend, catalog 790102) with anti-Fc antibody (Invitrogen, catalog A16086) (1:10 molar ratio) 20 minutes before treatment ([62]). […] Shedding of cleaved EphA4 was measured from the cell culture medium. Experiments were performed by dispersion of 200 islets, and EphA4 levels in media were measured by EphA4 ELISA (ABclonal, catalog RK06572).
(§2) The Integrated Islet Distribution Program provided us human donor islets with their characteristics (Supplemental Table 6). Islets were centrifuged at 500g for 3 minutes, resuspended in CMRL 1066 medium (Gibco, catalog 1150-037) containing 11 mM glucose, and rested in an incubator overnight.
(§3) For the hormone secretion assay, islets or dispersed islet cells were adapted in KRBH buffer containing 11 mM glucose for 1 hour. Then, after 2 washes in HBSS containing 11 mM glucose, islets or cells were treated in the following sequential order in the presence or absence of WCDD301: incubation in KRBH (1 mM glucose, 30 minutes) followed by medium collection, incubation in KRBH (11 mM glucose, 30 minutes) followed by medium collection.

[2] = tested on: human donor dispersed islet cells; test: Glucagon secretion from healthy human donor dispersed islet cells; set-up: Glucagon secretion: unit not given here
Protocol: as §1, §2, §3

[3] = tested on: human dispersed islet cells; test: Immunofluorescence: EphA4 intensity in glucagon+ human dispersed islet cells;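 for EphA4 intensity: ImageJ intensity within ROI drawn around each glucagon+ cell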
Protocol: Coverslips were treated with WCDD301, preclustered Ephrin-A5 Fc, or preclustered Fc in the following sequential order: KRBH (11 mM glucose, 30 minutes), KRBH (1 mM glucose, 60 minutes), KRBH (1 mM glucose, 30 minutes), and KRBH (11 mM glucose, 60 minutes). After treatment, coverslips were washed once in PBS, fixed in 2% paraformaldehyde in PBS (30 minutes), and again washed in PBS. […] Following wash in PBS, coverslips were incubated in a mixture of Alexa Fluor 555 Phalloidin (Cell Signaling Technology, catalog 8953) and secondary antibodies (goat anti-rabbit Alexa Fluor 488, catalog A-21094, 1:1,000, Molecular Probes; and goat anti-mouse Alexa Fluor 633, catalog A21052, 1:1,000, Life Technologies) for 1 hour at RT. Both primary and secondary antibodies were diluted in blocking buffer containing 0.05% Tween 20. Coverslips were washed using PBS and counterstained by using DAPI (1:1,000) for 10 minutes. Following 2 washes in PBS, coverslips were mounted on glass slides using ProLong Glass Antifade Mountant (Invitrogen, catalog P36980). Images were captured using the Zeiss LSM880 microscope with a Plan-Apochromat 63× 1.4 NA objective lens by setting dual-band dichroic/filter for 405, 488, 561, and 633 nm laser excitation. For each slide, 25–30 fields of view were scanned, and in each field of view, 3–5 cells were imaged. […] Values of intensity were compared among groups using 1-way ANOVA, α = 0.05.

[4] = Glucose (1 mM), WCDD301 0.75 µM
[5] = Glucose (11 mM), WCDD301 0.75 µM
[6] = Glucose (11 mM), WCDD301 1.5 µM

CC(=O)OCC(N)(COC(C)=O)COC(C)=O [WCDD301, 2-(acetoxymethyl)-2-aminopropane-1,3-diyl diacetate]
Effect on insulin secretion ([1]; 1, 3 or 6 hours exposure): transient effect | Insulin secretion ([1]; 1 hour exposure, WCDD301 0.75 µM, 1 mM (first group), Figure 2D): 0.23 and 0.21 and 0.2 | Insulin secretion ([1]; 1 hour exposure, WCDD301 0.75 µM, head printed 1 mM (second group c4-c7), Figure 2D): 0.277 and 0.233 and 0.25 | Insulin secretion ([1]; 1 hour exposure, WCDD301 1.5 µM, 1 mM (first group), Figure 2D): 0.247 and 0.17 and 0.22 | Insulin secretion ([1]; 1 hour exposure, WCDD301 1.5 µM, head printed 1 mM (second group c4-c7), Figure 2D): 0.299 and 0.278 and 0.26 | Insulin secretion ([1]; 1 hour exposure, WCDD301 3 µM, 1 mM (first group), Figure 2D): 0.133 and 0.134 and 0.23 | Insulin secretion ([1]; 1 hour exposure, WCDD301 3 µM, head printed 1 mM (second group c4-c7), Figure 2D): 0.196 and 0.199 and 0.27 | Insulin secretion ([1]; 3 hours exposure, WCDD301 0.75 µM, 1 mM (first group), Figure 2E): 0.188 and 0.216 and 0.2 | Insulin secretion ([1]; 3 hours exposure, WCDD301 0.75 µM, head printed 1 mM (second group c4-c7), Figure 2E): 0.279 and 0.305 and 0.31 | Insulin secretion ([1]; 3 hours exposure, WCDD301 1.5 µM, 1 mM (first group), Figure 2E): 0.156 and 0.166 and 0.2 | Insulin secretion ([1]; 3 hours exposure, WCDD301 1.5 µM, head printed 1 mM (second group c4-c7), Figure 2E): 0.227 and 0.252 and 0.3 | Insulin secretion ([1]; 3 hours exposure, WCDD301 3 µM, 1 mM (first group), Figure 2E): 0.23 and 0.247 and 0.22 | Insulin secretion ([1]; 3 hours exposure, WCDD301 3 µM, head printed 1 mM (second group c4-c7), Figure 2E): 0.249 and 0.253 and 0.31 | Insulin secretion ([1]; 6 hours exposure, WCDD301 0.75 µM, 1 mM (first group), Figure 2F): 0.248 and 0.23 and 0.252 | Insulin secretion ([1]; 6 hours exposure, WCDD301 0.75 µM, head printed 1 mM (second group c4-c7), Figure 2F): 0.383 and 0.391 and 0.37 | Insulin secretion ([1]; 6 hours exposure, WCDD301 1.5 µM, 1 mM (first group), Figure 2F): 0.257 and 0.265 and 0.24 | Insulin secretion ([1]; 6 hours exposure, WCDD301 1.5 µM, head printed 1 mM (second group c4-c7), Figure 2F): 0.41 and 0.395 and 0.38 | Insulin secretion ([1]; 6 hours exposure, WCDD301 3 µM, 1 mM (first group), Figure 2F): 0.185 and 0.176 and 0.25 | Insulin secretion ([1]; 6 hours exposure, WCDD301 3 µM, head printed 1 mM (second group c4-c7), Figure 2F): 0.327 and 0.324 and 0.4 | Insulin secretion (Supplemental Figure 4A; quantity not given) [1, 4]: 14.24 and 14.812 and 14.5 | Insulin secretion (Supplemental Figure 4B; quantity not given) [1, 4]: 12.664 and 13.794 and 14 | Insulin secretion (Supplemental Figure 4C; quantity not given) [1, 4]: 11.67 and 7.26 and 14 | Insulin secretion (Supplemental Figure 4A; quantity not given) ([1]; Glucose (1 mM), WCDD301 1.5 µM): 17.532 and 20.466 and 12 | Insulin secretion (Supplemental Figure 4B; quantity not given) ([1]; Glucose (1 mM), WCDD301 1.5 µM): 15.67 and 15.802 and 13.5 | Insulin secretion (Supplemental Figure 4C; quantity not given) ([1]; Glucose (1 mM), WCDD301 1.5 µM): 13.328 and 14.218 and 10 | Insulin secretion (Supplemental Figure 4A; quantity not given) ([1]; Glucose (1 mM), WCDD301 3 µM): 16.564 and 14.55 and 11.5 | Insulin secretion (Supplemental Figure 4B; quantity not given) ([1]; Glucose (1 mM), WCDD301 3 µM): 18.692 and 16.896 and 14 | Insulin secretion (Supplemental Figure 4C; quantity not given) ([1]; Glucose (1 mM), WCDD301 3 µM): 12.61 and 13.59 and 9 | Insulin secretion (Supplemental Figure 4A; quantity not given) [1, 5]: 22.29 and 19.8308 and 21 | Insulin secretion (Supplemental Figure 4B; quantity not given) [1, 5]: 16.996 and 15.584 and 14.5 | Insulin secretion (Supplemental Figure 4A; quantity not given) [1, 6]: 29.994 and 17.548 and 22 | Insulin secretion (Supplemental Figure 4B; quantity not given) [1, 6]: 19.714 and 16.496 and 13 | Insulin secretion (Supplemental Figure 4A; quantity not given) ([1]; Glucose (11 mM), WCDD301 3 µM): 17.376 and 17.746 and 23 | Insulin secretion (Supplemental Figure 4B; quantity not given) ([1]; Glucose (11 mM), WCDD301 3 µM): 17.584 and 17.686 and 13 | Insulin secretion (Supplemental Figure 4C; quantity not given) ([1]; Glucose (11 mM), WCDD301 3 µM): 16.66 and 13.592 and 8.5 | Effect on glucagon secretion ([2]; 1, 3 or 6 hours exposure, 1 mM and 11 mM glucose): dose-dependent and time-dependent suppression of glucagon secretion | Glucagon secretion ([2]; 1 hour exposure, WCDD301 0.75 µM, 1 mM (first group), Figure 2A): 48.0 and 44.0 and 43.0 | Glucagon secretion ([2]; 1 hour exposure, WCDD301 0.75 µM, head printed 1 mM (second group c4-c7), Figure 2A): 55.8 and 56.2 and 53.0 | Glucagon secretion ([2]; 1 hour exposure, WCDD301 1.5 µM, 1 mM (first group), Figure 2A): 41.5 and 42.9 and 40.0 | Glucagon secretion ([2]; 1 hour exposure, WCDD301 1.5 µM, head printed 1 mM (second group c4-c7), Figure 2A): 50.8 and 55.7 and 48.0 | Glucagon secretion ([2]; 1 hour exposure, WCDD301 3 µM, 1 mM (first group), Figure 2A): 40.5 and 41.8 and 38.0 | Glucagon secretion ([2]; 1 hour exposure, WCDD301 3 µM, head printed 1 mM (second group c4-c7), Figure 2A): 49.7 and 48.4 and 44.0 | Glucagon secretion ([2]; 3 hours exposure, WCDD301 0.75 µM, 1 mM (first group), Figure 2B): 41.6 and 44.5 and 43.0 | Glucagon secretion ([2]; 3 hours exposure, WCDD301 0.75 µM, head printed 1 mM (second group c4-c7), Figure 2B): 66.0 and 60.4 and 68.0 | Glucagon secretion ([2]; 3 hours exposure, WCDD301 1.5 µM, 1 mM (first group), Figure 2B): 44.9 and 42.7 and 41.0 | Glucagon secretion ([2]; 3 hours exposure, WCDD301 1.5 µM, head printed 1 mM (second group c4-c7), Figure 2B): 58.5 and 55.8 and 60.0 | Glucagon secretion ([2]; 3 hours exposure, WCDD301 3 µM, 1 mM (first group), Figure 2B): 42.4 and 42.3 and 41.0 | Glucagon secretion ([2]; 3 hours exposure, WCDD301 3 µM, head printed 1 mM (second group c4-c7), Figure 2B): 66.8 and 54.9 and 52.0 | Glucagon secretion ([2]; 6 hours exposure, WCDD301 0.75 µM, 1 mM (first group), Figure 2C): 42.9 and 40.6 and 44.0 | Glucagon secretion ([2]; 6 hours exposure, WCDD301 0.75 µM, head printed 1 mM (second group c4-c7), Figure 2C): 67.1 and 76.1 and 81.0 | Glucagon secretion ([2]; 6 hours exposure, WCDD301 1.5 µM, 1 mM (first group), Figure 2C): 42.5 and 46.0 and 43.0 | Glucagon secretion ([2]; 6 hours exposure, WCDD301 1.5 µM, head printed 1 mM (second group c4-c7), Figure 2C): 67.6 and 68.1 and 62.0 | Glucagon secretion ([2]; 6 hours exposure, WCDD301 3 µM, 1 mM (first group), Figure 2C): 39.8 and 39.3 and 37.0 | Glucagon secretion ([2]; 6 hours exposure, WCDD301 3 µM, head printed 1 mM (second group c4-c7), Figure 2C): 56.5 and 55.1 and 50.0 | EphA4 intensity ([3]; human cells, individual values, Figure 3G): 58.8 and 45.8 and 8.0 and 57.8 and 32.5 and 5.4 and 45.9 and 14.9 and 11.0 | Effect on intracellular EphA4 ([3]; α cells, human donors): increased intracellular EphA4 intensity
